These are literature values, as cited in patent US20070207944A1, “Blood Pressure Lowering Oligopeptides” (priority 2004, published 2007).

The test system of series [1] is spontaneously hypertensive rats. The note with it: Nakamura et al. 1995, tripeptides from fermented milk.
The target of series [2] is ACE (Homo sapiens, UniProt P12821). The note with it: for ACE inhibiting activity: in vitro, as reported in the literature.
Sequence of ACE (P12821 30-1306, species assumed): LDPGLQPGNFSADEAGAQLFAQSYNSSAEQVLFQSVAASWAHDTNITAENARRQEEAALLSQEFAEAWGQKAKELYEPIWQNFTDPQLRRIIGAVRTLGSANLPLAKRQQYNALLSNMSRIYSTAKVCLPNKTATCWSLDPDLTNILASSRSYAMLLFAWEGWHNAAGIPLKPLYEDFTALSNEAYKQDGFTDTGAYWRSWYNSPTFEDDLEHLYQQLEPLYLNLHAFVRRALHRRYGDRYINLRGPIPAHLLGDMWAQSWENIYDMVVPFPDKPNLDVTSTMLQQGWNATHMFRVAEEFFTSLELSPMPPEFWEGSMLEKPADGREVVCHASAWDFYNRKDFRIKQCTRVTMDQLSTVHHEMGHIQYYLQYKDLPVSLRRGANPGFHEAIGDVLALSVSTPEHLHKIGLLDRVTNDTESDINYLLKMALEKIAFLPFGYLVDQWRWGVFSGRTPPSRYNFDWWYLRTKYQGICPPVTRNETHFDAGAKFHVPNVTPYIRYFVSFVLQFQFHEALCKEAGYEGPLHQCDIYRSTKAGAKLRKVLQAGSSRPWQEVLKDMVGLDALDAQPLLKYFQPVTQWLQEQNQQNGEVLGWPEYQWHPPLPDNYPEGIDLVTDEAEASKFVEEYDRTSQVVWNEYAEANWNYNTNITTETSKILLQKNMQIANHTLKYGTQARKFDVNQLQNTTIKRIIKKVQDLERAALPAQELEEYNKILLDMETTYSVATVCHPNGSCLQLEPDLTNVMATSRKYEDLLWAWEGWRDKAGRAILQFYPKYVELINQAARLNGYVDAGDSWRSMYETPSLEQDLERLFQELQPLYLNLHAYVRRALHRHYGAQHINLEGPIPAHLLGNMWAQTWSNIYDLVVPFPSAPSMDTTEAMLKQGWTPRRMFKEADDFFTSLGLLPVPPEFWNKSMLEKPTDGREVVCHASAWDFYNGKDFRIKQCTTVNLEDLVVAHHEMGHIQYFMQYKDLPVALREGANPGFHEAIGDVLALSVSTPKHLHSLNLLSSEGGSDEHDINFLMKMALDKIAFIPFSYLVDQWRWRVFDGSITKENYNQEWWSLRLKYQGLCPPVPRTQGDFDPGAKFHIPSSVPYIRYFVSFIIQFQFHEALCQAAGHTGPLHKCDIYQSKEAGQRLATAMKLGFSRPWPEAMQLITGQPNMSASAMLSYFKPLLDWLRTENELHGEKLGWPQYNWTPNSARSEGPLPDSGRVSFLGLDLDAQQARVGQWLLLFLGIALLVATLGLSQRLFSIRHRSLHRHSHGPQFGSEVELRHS

As to Ile-Pro-Pro [IPP], the antihypertensive effects entry in series [1] is listed as “could be confirmed”. Also, the “ACE inhibiting activity” value in series [2] is given as “Strong ACE inhibiting activities”.
Consider Leu-Pro-Pro [LPP], for which the “ACE inhibiting activity” value in series [2] is reported as “Strong ACE inhibiting activities”.
As usually defined, the IC50 is the midpoint of a concentration-inhibition curve. With Val-Pro-Pro [VPP], the antihypertensive effects result in series [1] is listed as “could be confirmed”. Further, the “ACE inhibiting activity” value in series [2] is on record as “Strong ACE inhibiting activities”. Further, the IC50 in series [2] (reported by EP 0 583 074, read-out: IC50 value (ACE inhibition)) was 9 µM.
